Measurements reported in the supplement of paper PMC10307832.

Experiments:
Assay in all cases: relative viability (nuclei count vs DMSO), 5 days (fraction); higher = more cells survive
RU-SKI 43 + Vorinostat = compound: CC[C@@H](C)CNCC(=O)N1CCC2=C([C@@H]1COC3=CC=CC(=C3)C)C=CS2 [RU-SKI 43] + O=C(CCCCCCC(=O)Nc1ccccc1)NO [Vorinostat] (partner 1 µM)
Outline: (§1)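 Relative viability equals treated-well nuclei counts divided by vehicle-well nuclei counts. Counts came from 4× images of lung cancer cell lines grown in 1536-well plates for 5 days after pin-tool dosing on the day after seeding. Dosing used one drug alone or a fixed anchor-drug dose plus five library-drug doses (not always all listed) in √10 steps, and values are medians of duplicate plates.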

MK-8033 + Olaparib = compound: Cn1cc(-c2cnc3ccc4ccc(CS(=O)(=O)NCc5ccccn5)cc4c(=O)c3c2)cn1 [MK-8033] + O=C(c1cc(Cc2n[nH]c(=O)c3ccccc23)ccc1F)N1CCN(C(=O)C2CC2)CC1 [Olaparib] (partner 8 µM)
Outline: as §1

MK-8033 + Navitoclax = compound: Cn1cc(-c2cnc3ccc4ccc(CS(=O)(=O)NCc5ccccn5)cc4c(=O)c3c2)cn1 [MK-8033] + CC1(C)CCC(c2ccc(Cl)cc2)=C(CN2CCN(c3ccc(C(=O)NS(=O)(=O)c4ccc(N[C@H](CCN5CCOCC5)CSc5ccccc5)c(S(=O)(=O)C(F)(F)F)c4)cc3)CC2)C1 [Navitoclax] (partner 0.5 µM)
Outline: as §1

RU-SKI 43 + Crizotinib = compound: CC[C@@H](C)CNCC(=O)N1CCC2=C([C@@H]1COC3=CC=CC(=C3)C)C=CS2 [RU-SKI 43] + C[C@@H](Oc1cc(-c2cnn(C3CCNCC3)c2)cnc1N)c1c(Cl)ccc(F)c1Cl [Crizotinib] (partner 1 µM)
Outline: as §1

Cell Line | relative viability (RU-SKI 43 + Vorinostat; first compound 0.1 µM) | relative viability (RU-SKI 43 + Vorinostat; first compound 0.3162 µM) | relative viability (RU-SKI 43 + Vorinostat; first compound 1 µM) | relative viability (RU-SKI 43 + Vorinostat; first compound 3.162 µM) | relative viability (RU-SKI 43 + Vorinostat; first compound 10 µM) | relative viability (MK-8033 + Olaparib; first compound 0.02 µM) | relative viability (MK-8033 + Olaparib; first compound 0.06325 µM) | relative viability (MK-8033 + Olaparib; first compound 0.2 µM) | relative viability (MK-8033 + Olaparib; first compound 0.6325 µM) | relative viability (MK-8033 + Olaparib; first compound 2 µM) | relative viability (MK-8033 + Navitoclax; first compound 0.02 µM) | relative viability (MK-8033 + Navitoclax; first compound 0.06325 µM) | relative viability (MK-8033 + Navitoclax; first compound 0.2 µM) | relative viability (MK-8033 + Navitoclax; first compound 0.6325 µM) | relative viability (MK-8033 + Navitoclax; first compound 2 µM) | relative viability (RU-SKI 43 + Crizotinib; first compound 0.1 µM) | relative viability (RU-SKI 43 + Crizotinib; first compound 0.3162 µM) | relative viability (RU-SKI 43 + Crizotinib; first compound 1 µM) | relative viability (RU-SKI 43 + Crizotinib; first compound 3.162 µM) | relative viability (RU-SKI 43 + Crizotinib; first compound 10 µM)
NCI-H1651 | 0.617 | 0.573 | 0.676 | 0.559 | 0.548 | 0.202 | 0.175 | 0.181 | 0.178 | 0.16 | 1.06 | 1.03 | 1.07 | 1.13 | 1.02 | 0.886 | 0.971 | 0.891 | 0.887 | 0.865
NCI-H2405 | 1.1 | 1.11 | 1.18 | 1.02 | 1 | 0.832 | 0.881 | 0.868 | 0.913 | 0.876 | 0.825 | 0.727 | 0.733 | 0.847 | 0.933 | 0.863 | 0.933 | 0.811 | 0.852 | 0.807
NCI-H727 | – | 1.13 | 1.13 | 1.08 | 1.23 | 0.679 | 0.603 | 0.337 | 0.702 | 0.808 | 0.377 | 0.435 | 0.311 | 0.465 | 0.486 | 0.688 | 0.975 | 0.796 | 0.872 | 0.7
EMC-BAC-2 | 0.526 | 0.362 | 0.79 | 0.375 | 0.521 | 0.501 | 0.477 | 0.473 | 0.49 | 0.479 | 1.16 | 1.06 | 1.12 | 1.14 | 1.15 | 0.789 | 0.793 | 0.811 | 0.828 | 0.751
ChaGo-K-1 | 0.759 | 0.731 | 0.853 | 0.77 | 0.762 | 0.442 | 0.412 | 0.415 | 0.433 | 0.372 | 1.2 | 0.962 | 0.945 | 1.04 | 0.922 | 1.15 | 1.27 | 1.26 | 1.17 | 0.951
LXF-289 | 0.725 | 0.784 | 0.796 | 0.634 | 0.84 | 1.06 | 1.05 | 1.02 | 1.12 | 1.03 | 0.945 | 0.928 | 0.923 | 0.979 | 0.941 | 0.815 | 0.784 | 0.806 | 0.83 | 0.736
HCC-827 | 0.768 | 0.81 | 1.04 | 0.783 | 0.885 | 0.653 | – | 0.644 | 0.561 | 0.488 | 0.963 | – | 0.939 | 0.918 | 0.984 | 0.956 | 1.01 | 0.987 | 0.916 | 0.602
